Test results reported in ChEMBL document CHEMBL1938257, “Synthesis of monomeric derivatives to probe memoquin's bivalent interactions” (J Med Chem, 2011).
pIC50: −log10 of the molar value. The source made the active and inactive calls. The rule behind the calls is not given here.

Experiments:
[1] = Inhibition of amyloid beta (1 to 42) self-aggregation assessed as fibril formation at 10 uM after 24 hrs by thioflavin T-based fluorometric assay
[2] = biological target: T1, Beta-secretase 1 (Homo sapiens, UniProt P56817); test: Inhibition of recombinant BACE1 expressed in baculovirus system using panvera peptide as substrate at 3 uM after 60 mins by spectrofluorometric analysis
T1 sequence (P56817 whole entry): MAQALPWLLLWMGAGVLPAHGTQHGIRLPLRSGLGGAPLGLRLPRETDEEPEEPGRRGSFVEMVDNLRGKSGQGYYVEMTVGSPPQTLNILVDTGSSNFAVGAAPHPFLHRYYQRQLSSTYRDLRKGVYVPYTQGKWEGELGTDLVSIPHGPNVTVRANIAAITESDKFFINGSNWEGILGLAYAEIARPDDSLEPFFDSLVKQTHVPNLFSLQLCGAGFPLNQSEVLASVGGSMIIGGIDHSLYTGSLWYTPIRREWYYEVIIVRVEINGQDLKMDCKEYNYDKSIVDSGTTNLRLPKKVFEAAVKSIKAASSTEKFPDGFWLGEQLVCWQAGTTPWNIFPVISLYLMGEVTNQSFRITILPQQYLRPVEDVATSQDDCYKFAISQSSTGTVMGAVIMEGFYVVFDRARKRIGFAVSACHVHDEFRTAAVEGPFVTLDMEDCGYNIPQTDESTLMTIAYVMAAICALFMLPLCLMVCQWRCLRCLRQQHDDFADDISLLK

[3] = biological target: T2, Acetylcholinesterase (Homo sapiens, UniProt P22303); test: Inhibition of human recombinant AChE using acetylthiocholine iodide as substrate after 20 mins preincubation by Ellman method
T2 sequence (P22303 whole entry): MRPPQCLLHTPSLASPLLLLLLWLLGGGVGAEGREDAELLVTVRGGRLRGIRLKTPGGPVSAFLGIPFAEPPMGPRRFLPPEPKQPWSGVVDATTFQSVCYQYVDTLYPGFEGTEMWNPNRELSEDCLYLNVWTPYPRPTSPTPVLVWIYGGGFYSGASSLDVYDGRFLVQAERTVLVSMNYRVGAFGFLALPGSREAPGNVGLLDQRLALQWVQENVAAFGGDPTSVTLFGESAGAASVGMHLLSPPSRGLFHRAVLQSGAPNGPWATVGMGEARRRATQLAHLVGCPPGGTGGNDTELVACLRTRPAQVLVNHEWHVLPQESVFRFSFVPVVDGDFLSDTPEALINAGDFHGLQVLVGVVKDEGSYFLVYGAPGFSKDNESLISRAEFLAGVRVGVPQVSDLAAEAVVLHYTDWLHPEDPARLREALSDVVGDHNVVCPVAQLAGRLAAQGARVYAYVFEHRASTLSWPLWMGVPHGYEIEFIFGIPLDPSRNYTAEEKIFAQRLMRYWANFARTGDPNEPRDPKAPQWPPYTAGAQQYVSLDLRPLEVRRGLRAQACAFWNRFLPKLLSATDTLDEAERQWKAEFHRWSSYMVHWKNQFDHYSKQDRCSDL

[4] = biological target: Cholinesterase (Homo sapiens, UniProt P06276); test: Inhibition of human recombinant BuChE using butyrylthiocholine iodide as substrate after 20 mins preincubation by Ellman method
Sequence of Cholinesterase (P06276 whole entry): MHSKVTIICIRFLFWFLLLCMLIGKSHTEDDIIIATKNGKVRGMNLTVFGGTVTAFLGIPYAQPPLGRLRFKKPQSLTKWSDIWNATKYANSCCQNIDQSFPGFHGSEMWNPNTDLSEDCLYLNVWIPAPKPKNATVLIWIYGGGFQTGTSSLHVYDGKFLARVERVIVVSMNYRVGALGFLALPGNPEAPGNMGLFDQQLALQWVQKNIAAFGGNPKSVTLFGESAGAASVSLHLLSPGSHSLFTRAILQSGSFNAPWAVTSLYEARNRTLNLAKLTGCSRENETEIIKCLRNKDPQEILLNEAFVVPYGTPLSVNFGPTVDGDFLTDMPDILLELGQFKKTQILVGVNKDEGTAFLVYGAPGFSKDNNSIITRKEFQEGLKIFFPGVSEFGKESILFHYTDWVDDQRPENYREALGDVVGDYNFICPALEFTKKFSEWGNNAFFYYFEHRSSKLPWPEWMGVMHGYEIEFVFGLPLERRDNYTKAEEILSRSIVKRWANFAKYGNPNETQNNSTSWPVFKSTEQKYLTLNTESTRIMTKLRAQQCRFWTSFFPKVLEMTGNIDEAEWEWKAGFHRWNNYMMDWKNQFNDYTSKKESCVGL

[5] = biological target: T2, Acetylcholinesterase; test: Inhibition of human recombinant AChE-induced amyloid beta 40 aggregation assessed as fibril formation at 100 uM after 24 hrs by thioflavin T-based fluorometric assay
[6] = Neurotoxicity in chicken primary telencephalon neuron expressing APP assessed as reduction in neuronal viability at 25 uM after 24 hrs by MTT assay; parameters: species or system Gallus gallus
[7] = Inhibition of gamma-secretase in chicken primary telencephalon neuron cells expressing APP assessed as inhibition of amyloid beta-42 production by electrochemiluminescence assay; settings: Gallus gallus
[8] = biological target: T1, Beta-secretase 1; test: Inhibition of recombinant BACE1 expressed in baculovirus system using panvera peptide as substrate after 60 mins by spectrofluorometric analysis
[9] = Inhibition of gamma-secretase in chicken primary telencephalon neuron cells expressing APP assessed as inhibition of amyloid beta-38 production by electrochemiluminescence assay; settings: Gallus gallus
[10] = biological target: T2, Acetylcholinesterase; test: Inhibition of human recombinant AChE-induced amyloid beta (1-40) aggregation assessed as fibril formation after 24 hrs by thioflavin T-based fluorometric assay
[11] = Inhibition of gamma-secretase in chicken primary telencephalon neuron cells expressing APP assessed as inhibition of amyloid beta-40 production by electrochemiluminescence assay; settings: Gallus gallus
[12] = biological target: T1, Beta-secretase 1; test: Inhibition of recombinant BACE1 expressed in baculovirus system using M-2420 as substrate preincubated for 1 hr before substrate addition measured after 15 mins by spectrofluorometric analysis
[13] = Neurotoxicity in chicken primary telencephalon neuron expressing APP assessed as reduction in neuronal viability at 0.01 to 50 uM after 24 hrs by MTT assay; parameters: species or system Gallus gallus
[14] = Neurotoxicity in chicken primary telencephalon neuron expressing APP assessed as reduction in neuronal viability at 50 uM after 24 hrs by MTT assay; parameters: species or system Gallus gallus

SMILES	inhibition [1] [%]	inhibition [2]	pIC50 [3]	pIC50 [4]	inhibition [5] [%]	Activity [6]	pIC50 [7]	pIC50 [8]	pIC50 [9]	pIC50 [10]	pIC50 [11]	pIC50 [12]	Activity [13]	Activity [14]
COc1ccccc1CNCCCCCCNC1=CC(=O)c2ccccc2C1=O	29.5	inactive	5.73	5.48	–	–	–	–	–	–	–	–	–	–
CCN(CCCCCCNC1=CC(=O)C(C)=C(C)C1=O)Cc1ccccc1OC	30.2	12.8%	7.54	6.50	60.6	–	–	–	–	–	–	–	–	–
COC1=CC(=O)C(N2CCC(C3CCN(Cc4ccccc4OC)CC3)CC2)=CC1=O	20.5	32.9%	4.61	5.45	–	Toxic	–	–	–	–	–	–	–	–
CCN(CCCCCCNC1=CC(=O)c2ccccc2C1=O)Cc1ccccc1OC	27.3	60.2%	8.01	5.83	69.1	–	4.34	5.55	4.72	4.35	4.68	5.52	Non-toxic	–
CCN(CCCCCCNC1=CC(=O)C(OC)=CC1=O)Cc1ccccc1OC	45.7	32.8%	7.19	4.64	–	–	–	–	–	–	–	–	–	Toxic
CCN(CCCCCCNC1=CC(=O)C(NCCCCCCN(CC)Cc2ccccc2OC)=CC1=O)Cc1ccccc1OC [MEMOQUIN]	66.8	> 80%	–	6.84	–	Toxic	–	–	–	–	–	5.34	–	–
NCCCCCCNC1=CC(=O)c2ccccc2C1=O	13.8	inactive	4.19	3.53	–	–	–	–	–	–	–	–	–	–
COc1ccccc1CN1CCC(N2CCC(NC3=CC(=O)c4ccccc4C3=O)CC2)CC1	21.4	inactive	4.76	5.50	–	–	–	–	–	–	–	–	–	–
CCN(CCCCCCNC1=CC(=O)c2ncccc2C1=O)Cc1ccccc1OC	15.4	inactive	7.55	5.59	41.3	–	–	–	–	–	–	–	–	–
